These results are taken from patent publication US7385041B2, “Dual functioning excipient for metal chelate contrast agents” (Bracco International B.V., priority 1990, dated 2008).

Molecules are shown by their SMILES.

For the data set, the system named is Charles River CD-1 mice. Kind of data set: Intravenous acute tolerance in mice (LD50). Here is the method: The relative toxicities of free metal, free ligand, metal chelate contrast agent and excipient of the present invention were determined by injecting samples of each into the tail vein of Charles River CD-1 mice (18-23 g, 25-35 days) at 0.02 mL/g. The observation period was 14 days.

Where [1] appears, read: intravenous (tail vein) at 0.02 mL/g, CD-1 mice, 14 days observation, physiologic pH.

For the molecule `CC(O)CN1CCN(CC(=O)O)CCN(CC(=O)O)CCN(CC(=O)O)CC1` (stereo not shown) [HP-DO3A, 1,4,7-tris-(carboxymethyl)-10-(2′-hydroxypropyl)-1,4,7,10-tetraazacyclododecane], where the note is “mouse, in vivo, iv”, the LD50 was found to be 0.11 mmol/kg.
Regarding `O=C(O)CN1CCN(CC(=O)O)CCN(CC(=O)O)CCN(CC(=O)O)CC1` [DOTA, 1,4,7,10-tetraazacyclododecane-N,N′N″,N″′-tetraacetic acid], under setting [1], the 50% lethal dose (LD50) was 0.18 mmol/kg.
`O=C([O-])CN1CCNCCN(CC(=O)[O-])CCN(CC(=O)[O-])CC1.[Gd+3]` [Gd(DO3A)]: the LD50 under setting [1] is 5.7 mmol/kg. In addition, the “Tolerance (in words)” value (summary of Table 1 data, intravenous in mice) is listed as “highly tolerated”.
In turn, `CC(O)CN1CCN(CC(=O)O)CCN(CC(=O)O)CCN(CC(=O)O)CC1.[Gd+3]` (stereo not shown) [Gd(HP-DO3A), Gadolinium(III) 1,4,7-tris(carboxymethyl)-10-(2′-hydroxypropyl)-1,4,7,10-tetraazacyclododecane] registered an LD50 under setting [1] of 10 mmol/kg.
The molecule `CC(O)CN1CCN(CC(=O)[O-])CCN(CC(=O)[O-])CCN(CC(=O)[O-])CC1.CC(O)CN1CCN(CC(=O)[O-])CCN(CC(=O)[O-])CCN(CC(=O)[O-])CC1.[Ca+2].[Ca+2].[Ca+2]` (stereo not shown) [Ca[Ca(HP-DO3A)]2, Calcium bis[1,4,7-tris(carboxymethyl)-10-(2′-hydroxy)propyl-1,4,7,10-tetraazacyclododecanato-calcium(II)]] returned an LD50 under setting [1] of 1.3 mmol/kg.
In turn, `[Ca+2].[Cl-].[Cl-]` [CaCl2] gave an LD50 under setting [1] of 1.5 mmol/kg.
Same read-out and setting: as for `O=C([O-])CN1CCNCCN(CC(=O)[O-])CCN(CC(=O)[O-])CC1.O=C([O-])CN1CCNCCN(CC(=O)[O-])CCN(CC(=O)[O-])CC1.[Ca+2].[Ca+2].[Ca+2]` [Ca[Ca(DO3A)]2, Calcium bis[1,4,7,10-tetraazacyclododecane-1,4,7-triacetatocalcium(II)]], the figure is 1.6 mmol/kg.
Molecule `O=C(O)CN1CCNCCN(CC(=O)O)CCN(CC(=O)O)CC1` [DO3A, 1,4,7,10-tetraazacyclododecane-1,4,7-triacetic acid] gave an LD50 (mouse, in vivo, iv) of 0.12 mmol/kg.
Take `[Gd+3].[OH-].[OH-].[OH-]` [Gd(OH)3]: the LD50 under setting [1] stood at 0.1 mmol/kg.
